Non-standard residues stand in square brackets, D forms with d. Residues, ends and D or L forms follow the SMILES beside them. pS = N[C@@H](COP(=O)(O)O)C(=O)O
Tested on: seven human 14-3-3 isoforms
Assay: FA of ERRγ phosphopeptides with the seven 14-3-3 isoforms
Format: binding
Settings: 14-3-3γ compared with other isoforms; Figure 2b, Figure S1

For `CC(=O)N[C@@H](CCCCN)C(=O)N[C@@H](CCCNC(=N)N)C(=O)N[C@@H](CCCNC(=N)N)C(=O)N[C@@H](CCCNC(=N)N)C(=O)N[C@@H](CCCCN)C(=O)N[C@@H](COP(=O)(O)O)C(=O)N[C@@H](CS)C(=O)N[C@@H](CCC(N)=O)C(=O)N[C@@H](C)C(N)=O` [DBD] (Ac-KRRRK[pS]CQA-NH2), the “Relative affinity among 14-3-3 isoforms (in words)” value was “highest affinity”.

— publication PMC7754187 (ACS Chemical Biology, 2020)
